Test results published in ChEMBL document CHEMBL1201862, “PubChem BioAssay data set” (2004).
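The compound was tested at five concentrations on cells cultured in 96-well plates, with a 48-hour exposure period. GI50 = concentration required for 50% inhibition of growth.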 Calls of active or inactive are those of the source. No stated cut-off is given here; in the data, active = GI50 up to about 1.1 µM and inactive = higher.

Tests used:
Assay in all cases: NCI tumour cell line growth inhibition, 48 h
A498 = tested on: A498
NCI-H522 = tested on: NCI-H522
TK-10 = tested on: TK-10
SK-OV-3 = tested on: SK-OV-3
786-0 = tested on: 786-0
LOX IMVI = tested on: LOX IMVI
DU-145 = tested on: DU-145
SK-MEL-28 = tested on: SK-MEL-28
HCT-116 = tested on: HCT-116
T47D = tested on: T47D
U-251 = tested on: U-251
Malme-3M = tested on: Malme-3M
SNB-19 = tested on: SNB-19
KM12 = tested on: KM12
SK-MEL-5 = tested on: SK-MEL-5
NCI-H460 = tested on: NCI-H460
RPMI-8226 = tested on: RPMI-8226
A549 = tested on: A549
PC-3 = tested on: PC-3

Structure (SMILES) | GI50 (A498) | GI50 (NCI-H522) | GI50 (TK-10) | GI50 (SK-OV-3) | GI50 (786-0) | GI50 (LOX IMVI) | GI50 (DU-145) | GI50 (SK-MEL-28) | GI50 (HCT-116) | GI50 (T47D) | GI50 (U-251) | GI50 (Malme-3M) | GI50 (SNB-19) | GI50 (KM12) | GI50 (SK-MEL-5) | GI50 (NCI-H460) | GI50 (RPMI-8226) | GI50 (A549) | GI50 (PC-3)
CN(C)CCCOC(=O)C(c1ccccc1)C1(O)CCSCC1 (stereo unspecified) | > 100 µM (inactive) | > 100 µM (inactive) | > 100 µM (inactive) | > 100 µM (inactive) | > 100 µM (inactive) | > 100 µM (inactive) | > 100 µM (inactive) | > 100 µM (inactive) | > 100 µM (inactive) | > 100 µM (inactive) | > 100 µM (inactive) | > 100 µM (inactive) | 26.8 µM (inactive) | 68.2 µM (inactive) | > 100 µM (inactive) | > 100 µM (inactive) | > 100 µM (inactive) | > 100 µM (inactive) | > 100 µM (inactive)
CC(C)(C)c1ccc(O)c(CN(Cc2cc(C(C)(C)C)ccc2O)C2CCCCC2)c1 | 17.5 µM (inactive) | 15.8 µM (inactive) | 17.7 µM (inactive) | 24.4 µM (inactive) | 16 µM (inactive) | 10.7 µM (inactive) | 19.5 µM (inactive) | 14.5 µM (inactive) | 16.2 µM (inactive) | 16.4 µM (inactive) | 16.5 µM (inactive) | 15.8 µM (inactive) | 18 µM (inactive) | 20.5 µM (inactive) | 15.8 µM (inactive) | 16.7 µM (inactive) | 8.73 µM (inactive) | 16.2 µM (inactive) | 17.5 µM (inactive)
COc1ccc2nc3cc(Cl)ccc3c(NCCNCCCNC(=O)c3cc(-c4ccccc4)nc4ccccc34)c2c1 | > 100 µM (inactive) | > 100 µM (inactive) | > 100 µM (inactive) | > 100 µM (inactive) | > 100 µM (inactive) | 82.6 µM (inactive) | > 100 µM (inactive) | > 100 µM (inactive) | > 100 µM (inactive) | > 100 µM (inactive) | > 100 µM (inactive) | 97.5 µM (inactive) | > 100 µM (inactive) | 70.8 µM (inactive) | 67 µM (inactive) | > 100 µM (inactive) | > 100 µM (inactive) | > 100 µM (inactive) | 56.6 µM (inactive)
[N-]=[N+]=NC1C(O)C(CO)OC1n1ccc(=O)[nH]c1=O (stereo unspecified) | > 875 µM (inactive) | > 875 µM (inactive) | > 875 µM (inactive) | > 875 µM (inactive) | > 875 µM (inactive) | > 875 µM (inactive) | > 875 µM (inactive) | > 875 µM (inactive) | > 875 µM (inactive) | > 875 µM (inactive) | > 875 µM (inactive) | > 875 µM (inactive) | > 875 µM (inactive) | > 875 µM (inactive) | > 875 µM (inactive) | > 875 µM (inactive) | > 875 µM (inactive) | > 875 µM (inactive) | > 875 µM (inactive)
CCC1OC(=O)CC(O)C(C)C(OC2OC(C)C(O)C(N(C)C)C2O)C(CC=O)CC(C)C(=O)/C=C/C2(C)OC2C1C (stereo unspecified) | 36.9 µM (inactive) | 18.5 µM (inactive) | 34.2 µM (inactive) | 58.7 µM (inactive) | 24.1 µM (inactive) | 16.8 µM (inactive) | 20.7 µM (inactive) | 54.6 µM (inactive) | 17.9 µM (inactive) | 17.2 µM (inactive) | 30.2 µM (inactive) | 11.6 µM (inactive) | 44.4 µM (inactive) | 15.3 µM (inactive) | 7.03 µM (inactive) | 32.4 µM (inactive) | 11.1 µM (inactive) | 33.8 µM (inactive) | 47.9 µM (inactive)
CNC(=S)NNc1ncnc2c1ncn2-c1ccc(C)cc1 | > 100 µM (inactive) | > 100 µM (inactive) | > 100 µM (inactive) | > 100 µM (inactive) | > 100 µM (inactive) | > 100 µM (inactive) | > 100 µM (inactive) | > 100 µM (inactive) | > 100 µM (inactive) | > 100 µM (inactive) | > 100 µM (inactive) | > 100 µM (inactive) | > 100 µM (inactive) | > 100 µM (inactive) | > 100 µM (inactive) | > 100 µM (inactive) | > 100 µM (inactive) | > 100 µM (inactive) | > 100 µM (inactive)
C[C@H]1[C@H]2[C@H]3CC[C@@H]4[C@@]5(C)CC[C@H](O)C(C)(C)[C@@H]5CC[C@@]4(C)[C@]3(C)C[C@H](O)[C@@]2(C)C[C@H]2O[C@]21C | 21.4 µM (inactive) | 22.3 µM (inactive) | 22.3 µM (inactive) | 14.7 µM (inactive) | 19.5 µM (inactive) | 16.4 µM (inactive) | 15.5 µM (inactive) | 15.5 µM (inactive) | 16.1 µM (inactive) | 16 µM (inactive) | 17.2 µM (inactive) | 20 µM (inactive) | 20.6 µM (inactive) | 19.8 µM (inactive) | 16.6 µM (inactive) | 18.9 µM (inactive) | 19.4 µM (inactive) | 16.7 µM (inactive) | 13.7 µM (inactive)
c1cc(-c2ccc(-c3ccc(C4=NC5CCCCC5N4)cc3)o2)ccc1C1=NC2CCCCC2N1 (stereo unspecified) | 2.86 µM (inactive) | 1.61 µM (inactive) | 5.19 µM (inactive) | 1.64 µM (inactive) | 1.49 µM (inactive) | 1.56 µM (inactive) | 1.6 µM (inactive) | 1.83 µM (inactive) | 1.51 µM (inactive) | 1.98 µM (inactive) | 1.44 µM (inactive) | 1.73 µM (inactive) | 1.47 µM (inactive) | 1.46 µM (inactive) | 1.57 µM (inactive) | 1.84 µM (inactive) | 1.76 µM (inactive) | 1.71 µM (inactive) | 1.46 µM (inactive)
COc1ccc(Cc2cc(OC)c(OC)c(OC)c2)cc1O | 25.2 µM (inactive) | 0.12 µM (active) | > 90.4 µM (inactive) | 0.274 µM (active) | 0.116 µM (active) | 0.0547 µM (active) | 0.0231 µM (active) | < 0.0169 µM (active) | 0.064 µM (active) | 53.8 µM (inactive) | 0.0982 µM (active) | 0.0389 µM (active) | 0.0352 µM (active) | 0.0193 µM (active) | 0.0215 µM (active) | 0.0841 µM (active) | < 0.021 µM (active) | 0.119 µM (active) | < 0.0171 µM (active)
COc1ccc2c(c1)CCC(CN1CCN(CCOC(c3ccc(F)cc3)c3ccc(F)cc3)CC1)C2O (stereo unspecified) | 3.93 µM (inactive) | 14.8 µM (inactive) | 15 µM (inactive) | 15.5 µM (inactive) | 11.7 µM (inactive) | 15.3 µM (inactive) | 18.1 µM (inactive) | 14.6 µM (inactive) | 11.1 µM (inactive) | 11.2 µM (inactive) | 13.3 µM (inactive) | 14.4 µM (inactive) | 17.2 µM (inactive) | 19.1 µM (inactive) | 5.65 µM (inactive) | 16.4 µM (inactive) | 6.75 µM (inactive) | 16.3 µM (inactive) | 11.7 µM (inactive)
Nc1ccc(S(=O)(=O)Nc2nccs2)cc1 [SULFATHIAZOLE] | > 100 µM (inactive) | > 100 µM (inactive) | > 100 µM (inactive) | > 100 µM (inactive) | > 100 µM (inactive) | > 100 µM (inactive) | > 100 µM (inactive) | > 100 µM (inactive) | > 100 µM (inactive) | > 100 µM (inactive) | > 100 µM (inactive) | > 100 µM (inactive) | > 100 µM (inactive) | > 100 µM (inactive) | > 100 µM (inactive) | > 100 µM (inactive) | > 100 µM (inactive) | > 100 µM (inactive) | > 100 µM (inactive)
Cc1nc(N)nc2ccccc12 | > 100 µM (inactive) | > 100 µM (inactive) | > 100 µM (inactive) | > 100 µM (inactive) | > 100 µM (inactive) | > 100 µM (inactive) | > 100 µM (inactive) | > 100 µM (inactive) | > 100 µM (inactive) | > 100 µM (inactive) | > 100 µM (inactive) | > 100 µM (inactive) | > 100 µM (inactive) | > 100 µM (inactive) | > 100 µM (inactive) | > 100 µM (inactive) | > 100 µM (inactive) | > 100 µM (inactive) | > 100 µM (inactive)
Nc1nc(Cl)cc(NCC2(CO)CC(c3ccccc3)C2)n1 (stereo unspecified) | 22.8 µM (inactive) | 37.9 µM (inactive) | 95.1 µM (inactive) | 54.2 µM (inactive) | > 100 µM (inactive) | 7.16 µM (inactive) | > 100 µM (inactive) | 53.3 µM (inactive) | 11.4 µM (inactive) | 11.4 µM (inactive) | 50.7 µM (inactive) | 46.5 µM (inactive) | 88.7 µM (inactive) | 39.5 µM (inactive) | 9.12 µM (inactive) | 43.4 µM (inactive) | 17.2 µM (inactive) | 26.2 µM (inactive) | 18 µM (inactive)
O=C1N/C(=N/N=C/C(O)C(O)C(O)C(O)CO)N/C1=C\c1cccs1 (stereo unspecified) | 73.1 µM (inactive) | 88.5 µM (inactive) | > 100 µM (inactive) | > 100 µM (inactive) | > 100 µM (inactive) | > 100 µM (inactive) | > 100 µM (inactive) | > 100 µM (inactive) | > 100 µM (inactive) | 93.8 µM (inactive) | > 100 µM (inactive) | > 100 µM (inactive) | > 100 µM (inactive) | > 100 µM (inactive) | > 100 µM (inactive) | > 100 µM (inactive) | > 100 µM (inactive) | 94.4 µM (inactive) | > 100 µM (inactive)
